Here are results for 3 compounds from patent publication US7790697B2, “Compositions and methods for inhibiting the synthesis or expression of MMP-1” (Trustees of Dartmouth College, priority 2004, dated 2010).

Series [1] relates to MDA-231 cells in type I collagen gel. In words: In vitro collagen gel destruction assay. It is filed as cell-based. As to conditions: empty vector MDA-231 cells, 36 hours. How it is done: In vitro Collagen Gel Destruction Assay. Collagen preparations were carried out on ice to prevent premature jelling. A solution of purified type I bovine collagen (Cohesion Technologies, Palo Alto, Calif.) was neutralized with a sterile 10× phosphate-buffered saline (pH 7.4), and 0.1 M NaOH. The solution of neutralized collagen (2 mg/mL) was mixed with an equivalent volume of cells suspended in serum free DMEM to yield a final concentration of 2×10^5 cells/mL in 1 mg/mL fibrillar collagen, and 1 mL of the collagen/cell mixture was added to each well of a six-well plate. After approximately 1 hour, the collagen jelled, and 1 mL of serum-free media was added on top of the gel. For some experiments, 25 μM ILOMASTAT® (CHEMICON®, Temecula, Calif.), 50 U/mL aprotinin (Sigma, St. Louis, Mo.), 1 μg/mL neutralizing MMP-1 antibody (MMP-1 ab-5; ONCOGENE™ Research Products, San Diego, Calif.), 1 μg/mL monoclonal FLAG® antibody (Sigma, St. Louis, Mo.), or 1% DMSO were added to the collagen before it jelled. After 36 hours of incubation at 37° C. the medium was removed from the top of collagen gels and weighed. The weight of media added at the start of the 37° C. incubation (1 gram) was subtracted from the total media weights to reveal the amount of media liberated by collagen gel destruction.
An in vitro collagen destruction assay was developed to determine whether the MMP-1 levels in MDA-231 cells with the empty vector were functionally capable of degrading a collagen matrix, and whether the shRNA-mediated reduction in MMP-1 was sufficient to change the invasive behavior of the cells. MDA-231 cells harboring either the empty vector or the MMP-1 shRNA were embedded in a solution of type I collagen (1 mL). The collagen was allowed to solidify at 37° C., and 1 mL of serum-free medium was layered on top of each gel. After 36 hours at 37° C., the medium was removed from each well and photographs were taken. No collagen was visible in wells containing MDA-231 cells with the empty vector. […] The medium removed from each well was weighed to quantitate the amount of medium liberated as the gel was destroyed. After 36 hours, approximately 1 mL (0.8±0.06 grams) of medium was liberated from the collagen gels containing the MDA-231 cells with the empty vector. […] Conversely, no medium (−0.01±0.03 grams) was liberated from collagen gels containing MDA-231 cells producing the MMP-1 shRNA. The slight decrease in the volume of medium recovered may be due to evaporation of the medium during the incubation period.

The test system of series [2] is MDA-231 cells. In words: Creation and subcloning of stable MDA-231 cell lines. The following applies: PSUPER-retro plasmid, G418 selection and subcloning. It is filed as cell-based. How it is done: Transfection of NIH/3T3 and MDA-231 Cells. NIH/3T3 cells were transiently transfected with LIPOFECTAMINE™ 2000 (INVITROGEN™, Carlsbad, Calif.) along with 0.5 μg peGFP, 0.5 μg pCMV-MMP-1, and 2 μg PSUPER™-MMP-1 shRNA or PSUPER™ with no insert. Transfection efficiency was monitored using eGFP signal. Total cellular RNA was harvested 48 hours after transfection and analyzed for MMP-1 mRNA by real-time RT-PCR. MDA-231 cells were stably transfected in triplicate with LIPOFECTAMINE™ 2000 (INVITROGEN™, Carlsbad, Calif.) and 2 μg of the PSUPER™.Retro.Neo.GFP plasmid containing the MMP-1 shRNA, the scrambled sequence or just the empty vector. Stable cell lines were selected by growth in the presence of 1 mg/mL G418 (STRATAGENE®, La Jolla, Calif.). Individual, stable cell lines were isolated with cloning disks according to the manufacturer's instructions (PGC Scientifics, Frederick, Md.).
Three groups of stable MDA-231 cell lines were created. One group contained only the PSUPER™-retro plasmid, a second group contained a PSUPER™-retro plasmid with the scrambled shRNA sequence, and the third contained a PSUPER™-retro plasmid with the MMP-1 shRNA oligonucleotide.

In series [3] the test system is MMP-1 protein. Kind of series: Western blot of MMP-1 protein in culture medium. It is filed as cell-based, human. As to conditions: empty vector MDA-231 cells in collagen gel; 50 U/mL; 24 hours. How it is done:
Western Blot Analysis. MDA-231 cells were cultured in 1 mL serum-free DMEM/F12 medium in six-well plates in the presence or absence of a collagen gel, with or without aprotinin (50 U/mL; Sigma, St. Louis, Mo.). After 24 hours, medium was harvested, proteins precipitated with cold 10% trichloroacetic acid, and resuspended in 50 μL SDS loading buffer (PROMEGA®, Madison, Wis.). Following SDS-PAGE and transfer to a PVDF membrane (IMMOBILON™-P; MILLIPORE™, Bedford, Mass.), the membrane was incubated in a 5% milk, Tris-buffered saline solution with 0.1% TWEEN™ (milk TBST) for 1 hour. The membrane was probed with a MMP-1 polyclonal antibody (CHEMICON®, Temecula, Calif.) diluted 1:5000 in milk TBST overnight at 4° C. The membrane was washed three times with TBST, and a 1:2000 dilution of goat anti-rabbit horseradish peroxidase (HRP) conjugated antibody (CELL SIGNALING TECHNOLOGY®, Beverly, Mass.) in milk TBST was added for 60 minutes. The blot was washed three times with TBST, and HRP activity was detected with the WESTERN LIGHTNING® chemiluminescence reagent according to the manufacturer's instructions (PERKINELMER®, Boston, Mass.).
The three MMPs primarily responsible for degrading type 1 collagen are MMP-1, MMP-13, and the membrane bound MT1-MMP (Stamenkovic (2003) J. Pathol. 200:448-64). […]
In general terms: Immunoblotting shows a protein as a band on a membrane.

On to `CNC(=O)[C@H](Cc1c[nH]c2ccccc12)NC(=O)[C@@H](CC(=O)NO)CC(C)C` [ILOMASTAT®, ILOMASTAT, reference compound], for which, in series [1] (25 μM/gel inhibitor embedded), the “medium liberated from collagen gels” value is −0.1±0.08 grams. With “scrambled shRNA: Control shRNA with identical hairpin loop and linker, sequence not complementary to any human gene (SEQ ID NO:6) (AAGTGGAGGGACGTATGCA; the letters are possibly those of the target site)”, the “growth and survival of stably transfected cells” value in series [2] was “did not grow well, and did not survive the subcloning procedures”. Regarding aprotinin [reference compound], the “medium liberated from collagen gels” value in series [1] (50 U/mL collagen embedded) was determined as 0.01±0.1 grams. For the same compound, the “MMP-1 bands in medium / activation of proMMP-1 (western blot)” value in series [3] was “only the higher molecular weight zymogen band”.
